# “And” between values parts separate entries of the source, which are not always exact repeats. Equal entries are not always repeated. Where two headings read alike, the source gives them in different places.
# Columns and labels:
# [1] = molecular target: CB2R-L185^ECL2H (Homo sapiens, UniProt P34972, L185H); test: [35S]GTPγS assay, CB2R L185H mutant; assay type: biochemical
# [2] = molecular target: CB2R-L182^ECL2I (Homo sapiens, UniProt P34972, L182I); test: [35S]GTPγS assay, CB2R L182I mutant; assay type: biochemical
# [3] = molecular target: CB2R-E181^ECL2D (Homo sapiens, UniProt P34972, E181D); test: [35S]GTPγS assay, CB2R E181D mutant; assay type: biochemical
# [4] = test system: CB1R QuadrupleTM1,7; test: [35S]GTPγS assay, CB1R quadruple mutant; assay type: biochemical, human
# [5] = molecular target: CB2R-I110^3.29A (Homo sapiens, UniProt P34972, I110A); test: [35S]GTPγS assay, CB2R I110A mutant; assay type: biochemical
# [6] = molecular target: CB2R-H95^2.65A (Homo sapiens, UniProt P34972, H95A); test: [35S]GTPγS assay, CB2R H95A mutant; assay type: biochemical
# [7] = molecular target: T1, CB1R D266ECL2E (Homo sapiens, UniProt P21554, D266E); test: [35S]GTPγS assay, CB1R D266E mutant; assay type: biochemical
# T1 construct: The WT CB1R and CB2R genes were subcloned into vector pcDNA3.1; HA signal peptide (N); expressed in transfected cells; host or cells: HEK293T (transient, membrane homogenates)
# [8] = molecular target: CB1R I267ECL2L (Homo sapiens, UniProt P21554, I267L); test: [35S]GTPγS assay, CB1R I267L mutant; assay type: biochemical
# [9] = molecular target: CB1R-H270^ECL2L (Homo sapiens, UniProt P21554, H270L); test: [35S]GTPγS assay, CB1R H270L mutant; assay type: biochemical
# [10] = molecular target: CB2R-F117^3.36A (Homo sapiens, UniProt P34972, F117A); test: [35S]GTPγS assay, CB2R F117A mutant; assay type: biochemical
# [11] = molecular target: CB2R-V261^6.51L (Homo sapiens, UniProt P34972, V261L); test: [35S]GTPγS assay, CB2R V261L mutant; assay type: biochemical
# [12] = molecular target: CB2R-I110^3.29L (Homo sapiens, UniProt P34972, I110L); test: [35S]GTPγS assay, CB2R I110L mutant; assay type: biochemical
# [13] = molecular target: hCB1R WT (Homo sapiens, UniProt P21554); test: [35S]GTPγS G protein activation assay, CB1R WT; assay type: biochemical
# [14] = molecular target: CB2R-S285^7.39A (Homo sapiens, UniProt P34972, S285A); test: [35S]GTPγS assay, CB2R S285A mutant; assay type: biochemical
# [15] = molecular target: CB2R-Quadruple^TM1,7 (Homo sapiens, UniProt P34972, C40S/K279T/K33Q/V36I); test: [35S]GTPγS assay, CB2R quadruple mutant; assay type: biochemical; conditions: for [35S]GTPγS binding, percentage of WT: QuadrupleTM1,7, individual replicates
# Procedure: In short, transient HEK293T membrane homogenates (10 µg/well) were diluted in assay buffer (50 mM Tris-HCl (pH 7.4), 5 mM MgCl2, 150 mM NaCl, 1 mM EDTA, 0.05% BSA (w/v) and 1 mM DTT, freshly prepared every day) and were pretreated with 10 µg saponin and 1 µM GDP. For endocannabinoid samples, the membranes were additionally pretreated for 30 min with 50 µM PMSF before agonist addition. […] Basal receptor activity was determined in the presence of vehicle only (0.2% DMSO/acetonitrile). […] Filtration was performed, and filter-bound radioactivity was determined as described under [^3H]RO6957022 Competition Association Assays except for using ice-cold 50 mM Tris-HCl (pH 7.4), 5 mM MgCl2 buffer.
# [16] = molecular target: CB2R WT (Homo sapiens, UniProt P34972); test: [35S]GTPγS G protein activation assay, CB2R WT; assay type: biochemical; conditions: for [35S]GTPγS binding, percentage of WT / [35S]GTPγS binding, percentage of CP55,940: individual replicates
# [17] = molecular target: T2, hCB2R (Homo sapiens, UniProt P34972); test: [3H]RO6957022 competition association assay; assay type: binding; conditions: for percentage specific [3H]RO6957022 binding (competition association): individual replicates
# T2 construct: host or cells: CHO-K1 (CHOK1_hCB2bgal, PathHunter), membranes
# [18] = molecular target: T2, hCB2R; test: [3H]RO6957022 displacement assay; assay type: binding; conditions: individual replicates
# Sequence of CB2R-Quadruple^TM1,7 (P34972 whole entry K33Q/V36I/C40S/K279T): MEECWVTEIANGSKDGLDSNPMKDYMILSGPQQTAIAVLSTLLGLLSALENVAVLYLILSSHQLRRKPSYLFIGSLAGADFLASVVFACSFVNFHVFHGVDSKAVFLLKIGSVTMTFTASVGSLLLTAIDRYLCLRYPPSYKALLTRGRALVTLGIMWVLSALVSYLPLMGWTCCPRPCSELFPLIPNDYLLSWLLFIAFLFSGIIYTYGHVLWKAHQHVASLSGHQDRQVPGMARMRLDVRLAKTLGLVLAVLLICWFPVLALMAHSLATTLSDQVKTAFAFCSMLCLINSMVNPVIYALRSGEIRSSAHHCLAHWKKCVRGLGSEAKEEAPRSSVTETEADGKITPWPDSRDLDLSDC
# Sequence of CB2R WT (P34972 whole entry): as the sequence (P34972 whole entry K33Q/V36I/C40S/K279T) above, with Q33K, I36V, S40C, T279K counted along it
# T2 sequence (P34972 whole entry): as the sequence (P34972 whole entry K33Q/V36I/C40S/K279T) above, with Q33K, I36V, S40C, T279K counted along it
# Sequence of CB2R-L182^ECL2I (P34972 whole entry L182I): as the sequence (P34972 whole entry K33Q/V36I/C40S/K279T) above, with Q33K, I36V, S40C, L182I, T279K counted along it
# Sequence of CB2R-L185^ECL2H (P34972 whole entry L185H): as the sequence (P34972 whole entry K33Q/V36I/C40S/K279T) above, with Q33K, I36V, S40C, L185H, T279K counted along it
# Sequence of CB2R-E181^ECL2D (P34972 whole entry E181D): as the sequence (P34972 whole entry K33Q/V36I/C40S/K279T) above, with Q33K, I36V, S40C, E181D, T279K counted along it
# Sequence of CB2R-H95^2.65A (P34972 whole entry H95A): as the sequence (P34972 whole entry K33Q/V36I/C40S/K279T) above, with Q33K, I36V, S40C, H95A, T279K counted along it
# T1 sequence (P21554 whole entry D266E): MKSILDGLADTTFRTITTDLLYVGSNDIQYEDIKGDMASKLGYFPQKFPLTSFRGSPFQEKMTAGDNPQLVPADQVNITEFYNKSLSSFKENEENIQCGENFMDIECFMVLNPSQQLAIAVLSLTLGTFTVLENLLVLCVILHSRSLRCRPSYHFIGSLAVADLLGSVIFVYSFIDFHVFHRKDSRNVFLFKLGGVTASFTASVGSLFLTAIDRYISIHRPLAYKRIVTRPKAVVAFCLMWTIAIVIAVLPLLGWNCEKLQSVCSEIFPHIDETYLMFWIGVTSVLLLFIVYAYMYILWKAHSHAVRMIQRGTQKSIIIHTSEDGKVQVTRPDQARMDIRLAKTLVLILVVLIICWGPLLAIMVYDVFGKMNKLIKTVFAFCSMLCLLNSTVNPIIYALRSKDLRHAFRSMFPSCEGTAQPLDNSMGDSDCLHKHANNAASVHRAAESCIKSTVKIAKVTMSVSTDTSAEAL
# Sequence of hCB1R WT (P21554 whole entry): as the sequence (P21554 whole entry D266E) above, with E266D counted along it
# Sequence of CB2R-I110^3.29L (P34972 whole entry I110L): as the sequence (P34972 whole entry K33Q/V36I/C40S/K279T) above, with Q33K, I36V, S40C, I110L, T279K counted along it
# Sequence of CB2R-V261^6.51L (P34972 whole entry V261L): as the sequence (P34972 whole entry K33Q/V36I/C40S/K279T) above, with Q33K, I36V, S40C, V261L, T279K counted along it
# Sequence of CB2R-F117^3.36A (P34972 whole entry F117A): as the sequence (P34972 whole entry K33Q/V36I/C40S/K279T) above, with Q33K, I36V, S40C, F117A, T279K counted along it
# Sequence of CB1R-H270^ECL2L (P21554 whole entry H270L): as the sequence (P21554 whole entry D266E) above, with E266D, H270L counted along it
# Sequence of CB2R-I110^3.29A (P34972 whole entry I110A): as the sequence (P34972 whole entry K33Q/V36I/C40S/K279T) above, with Q33K, I36V, S40C, I110A, T279K counted along it
# Sequence of CB2R-S285^7.39A (P34972 whole entry S285A): as the sequence (P34972 whole entry K33Q/V36I/C40S/K279T) above, with Q33K, I36V, S40C, T279K, S285A counted along it
# Sequence of CB1R I267ECL2L (P21554 whole entry I267L): as the sequence (P21554 whole entry D266E) above, with E266D, I267L counted along it
compound,measurement,setting,value
"CCCCCCC(C)(C)c1ccc([C@@H]2C[C@H](O)CC[C@H]2CCCO)c(O)c1 [CP55,940]",Emax,[1],142 ± 16%
same,Emax,[2],19 ± 2%
same,Emax,[3],19 ± 10%
same,Agonist-mediated activation,[4],1.8 ± 0.1 fold over its basal
same,Emax,[5],30 ± 2%
same,Emax,[6],68 ± 11%
same,drop in potency compared to WT,[6],40 fold
same,Agonist-mediated activation,[7],1.4 ± 0.1 fold over its basal
same,Agonist-mediated activation,[8],1.0 ± 0.0 fold over its basal
same,Agonist-mediated activation,[9],1.6 ± 0.1 fold over its basal
same,Emax,[10],-1 ± 14%
same,Emax,[11],12 ± 7%
same,Emax,[12],96 ± 3%
same,Agonist-mediated activation,[13],1.2 ± 0.1 fold over its basal
same,Emax,[14],25 ± 5%
same,Emax,[15],18 ± 14%
same,Emax,[16],98 ± 4%
same,Emax (%),[16],99 ± 3%
"CCCCC/C=C\C/C=C\C/C=C\C/C=C\CCCC(=O)NCCO [AEA, anandamide]",Emax,"[1]; L185H mutant, at 10 µM compared to WT, read-out: Emax (%)",210 ± 61%
same,Emax,"[2]; L182I mutant, at 10 µM compared to WT, read-out: Emax (%)",5 ± 17%
same,Emax,"[3]; E181D mutant, at 10 µM compared to WT, read-out: Emax (%)",14 ± 5%
same,Agonist-mediated activation,[4],1.6 ± 0.1 fold over its basal
same,percentage specific [3H]RO6957022 binding (competition association),[17]; Time 1 min,4.42% and 11.28% and 5.44%
same,percentage specific [3H]RO6957022 binding (competition association),[17]; Time 3 min,16.17% and 23.05% and 21.34%
same,percentage specific [3H]RO6957022 binding (competition association),[17]; Time 5 min,26.28% and 26.79% and 25.51%
same,percentage specific [3H]RO6957022 binding (competition association),[17]; Time 7 min,34.14% and 35.42% and 31.98%
same,percentage specific [3H]RO6957022 binding (competition association),[17]; Time 10 min,34.18% and 41.87% and 46.59%
same,percentage specific [3H]RO6957022 binding (competition association),[17]; Time 20 min,41.44% and 51.99% and 48.92%
same,percentage specific [3H]RO6957022 binding (competition association),[17]; Time 30 min,50.41% and 53.24% and 59.83%
same,percentage specific [3H]RO6957022 binding (competition association),[17]; Time 45 min,45.80% and 66.77% and 61.94%
same,percentage specific [3H]RO6957022 binding (competition association),[17]; Time 60 min,54.67% and 64.58% and 70.00%
same,percentage specific [3H]RO6957022 binding (competition association),[17]; Time 90 min,60.96% and 62.48% and 62.68%
same,percentage specific [3H]RO6957022 binding (competition association),[17]; Time 120 min,62.19% and 63.42% and 54.77%
same,ET (engagement time),"[17]; at 1 µM agonist, ET = 1/(kon ∙ 1 × 10-6)",152 s and 152 ± 10.4 s
same,percentage specific [3H]RO6957022 binding (displacement),[18]; log [agonist] (M) -5,3.79% and 18.06% and 16.04%
same,percentage specific [3H]RO6957022 binding (displacement),[18]; log [agonist] (M) -6,47.48% and 65.38% and 68.38%
same,percentage specific [3H]RO6957022 binding (displacement),[18]; log [agonist] (M) -7,87.86% and 102.56% and 105.31%
same,percentage specific [3H]RO6957022 binding (displacement),[18]; log [agonist] (M) -8,101.15% and 95.97% and 108.64%
same,Emax,"[15]; Quadruple TM1,7 mutant, at 10 µM compared to WT, read-out: Emax (%)",24 ± 7%
same,"[35S]GTPγS binding, percentage of WT",[15]; log [ligand] (M) -5,32.30 percentage of WT and 9.42 percentage of WT and 29.02 percentage of WT
same,"[35S]GTPγS binding, percentage of WT",[15]; log [ligand] (M) -6,-7.36 percentage of WT and -10.83 percentage of WT and 27.74 percentage of WT
same,"[35S]GTPγS binding, percentage of WT",[15]; log [ligand] (M) -7,-34.86 percentage of WT and -19.55 percentage of WT and 15.75 percentage of WT
same,"[35S]GTPγS binding, percentage of WT",[15]; log [ligand] (M) -8,9.32 percentage of WT and -29.85 percentage of WT and 11.86 percentage of WT
same,Emax,"[16]; CB2R WT, maximum effect at 10 µM compared to WT (Suppl. Table 6), read-out: Emax (%)",106 ± 7%
same,Emax,"[16]; CB2R WT, maximum effect compared to CP55,940, read-out: Emax (%)",60 ± 5%
same,"[35S]GTPγS binding, percentage of WT",[16]; log [ligand] (M) -5,119.90 percentage of WT and 99.77 percentage of WT and 99.12 percentage of WT
same,"[35S]GTPγS binding, percentage of WT",[16]; log [ligand] (M) -6,73.32 percentage of WT and 72.65 percentage of WT and 56.56 percentage of WT
same,"[35S]GTPγS binding, percentage of WT",[16]; log [ligand] (M) -7,21.64 percentage of WT and 23.33 percentage of WT and 32.57 percentage of WT
same,"[35S]GTPγS binding, percentage of WT",[16]; log [ligand] (M) -8,2.55 percentage of WT and 4.67 percentage of WT and 26.67 percentage of WT
same,"[35S]GTPγS binding, percentage of CP55,940",[16]; log [agonist] (M) -5,55.30% and 54.57% and 71.23%
same,"[35S]GTPγS binding, percentage of CP55,940",[16]; log [agonist] (M) -6,33.82% and 39.74% and 40.65%
same,"[35S]GTPγS binding, percentage of CP55,940",[16]; log [agonist] (M) -7,9.98% and 12.76% and 23.41%
same,"[35S]GTPγS binding, percentage of CP55,940",[16]; log [agonist] (M) -8,1.18% and 2.55% and 19.17%

# From article PMC10017709, “Structural basis of selective cannabinoid CB2 receptor activation” (Nature Communications, 2023)
